Laboratory results from patent US8163509B2, “Biological markers predictive of anti-cancer response to insulin-like growth factor-1 receptor kinase inhibitors” (The Regents of the University of Colorado, A Body Corporate, priority 2008, dated 2012).
Where two headings read alike, the source gives them in different places. Values belong to the compound of their own block, whether it stands above or below them.

Key:
Assay in all cases: SRB proliferation assay, 72 h
SW1463 CRC cell line = assay type: cell-based; conditions: Homo sapiens
Protocol: (§1) FIG. 17: Results of cell proliferation assay on the panel of 27 CRC cell lines. Cell proliferation was evaluated by SRB following exposure to OSI-906 for 72 hours. Cells were plated at an optimized density in 96-well plates, incubated overnight at 37° C., and then exposed to a serial dilution of OSI-906. After 72 hours incubation, cells were fixed with trichloroacetic acid and an SRB was performed as described in materials and methods.
(§2) Cell Lines and Culture. […] human colon cancer cell lines, were obtained from American Type Culture Collection (Manassas, Va.). Cells were grown in RPMI medium supplemented with 10% fetal bovine serum, 1% non-essential amino acids, 1% penicillin/streptomycin and were maintained at 37° C. in an incubator under an atmosphere containing 5% CO2. The cells were routinely screened for the presence of mycoplasma (MycoAlert, Cambrex Bio Science, Baltimore, Md.) and were exposed to PQIP when they reached approximately 70% confluence.
(§3) The CRC cell lines were treated with a range of concentrations of PQIP (from 0.05-5 μM) for 72 hours.
(§4) Cell Lines and Culture: Twenty-seven human colon cancer cell lines, were obtained from American Type Culture Collection (Manassas, Va.). The GEO cells were a generous gift from Dr. Fortunato Ciardiello (Cattedra di Oncologia Medica, Dipartimento Medico-Chirurgico di Internistica Clinica e Sperimentale “F Magrassi e A Lanzara,” Seconda Università degli Studi di Napoli, Naples). All cells except GEO were grown in RPMI medium supplemented with 10% fetal bovine serum, 1% non-essential amino acids, 1% penicillin/streptomycin and were maintained at 37° C. in an incubator under an atmosphere containing 5% CO2. GEO cells were grown in DMEM/F12 supplemented with 10% fetal bovine serum, 1% non-essential amino acids, 1% penicillin/streptomycin. The cells were routinely screened for the presence of mycoplasma (MycoAlert, Cambrex Bio Science, Baltimore, Md.) and were exposed to OSI-906 when they reached approximately 70% confluence. OSI-906 was provided by OSI Pharmaceuticals, (Boulder, Colo.) and prepared as a 10 mM stock solution in DMSO.
(§5) Assessment of responsiveness of a panel of CRC cell lines to OSI-906. In order to assess CRC cell lines with differential sensitivity to OSI-906, a panel of 27 CRC cell lines were exposed to increasing concentrations of OSI-906 and proliferation was measured using the SRB assay as described previously (Pitts, T M, et al. Mol Cancer Ther 2009; 8(2):342-9). As depicted in FIG. 17 there was a wide range of sensitivity of the CRC cell lines to OSI-906, the majority of the cell lines failing to reach an IC50 up to 5 μmol/L, but a clear distinction could be made between the cell lines that were sensitive and the cell lines that were resistant.

LS174T CRC cell line = assay type: cell-based; conditions: Homo sapiens
Protocol: as §1, §2, §3, §4, §5

HCT8 CRC cell line = assay type: cell-based; conditions: Homo sapiens
Protocol: as §1, §2, §3, §4, §5

SW403 CRC cell line = assay type: cell-based; conditions: Homo sapiens
Protocol: as §1, §2, §3, §4, §5

SW837 CRC cell line = assay type: cell-based; conditions: Homo sapiens
Protocol: as §1, §2, §3, §4, §5

HCT15 CRC cell line = assay type: cell-based; conditions: Homo sapiens
Protocol: as §1, §2, §3, §4, §5

SW948 CRC cell line = assay type: cell-based; conditions: Homo sapiens
Protocol: as §1, §2, §3, §4, §5

HT29 CRC cell line = assay type: cell-based, human
Protocol: as §1, §2
Cytotoxicity and Combination Effects: HT29, HCT116, RKO, and LS513 CRC cell lines were exposed to 0-10 nM SN-38 (7-Ethyl-10-hydroxy-camptothecin), 0-10 μM Oxaliplatin, or 0-50 μM 5-Fluorouracil (5-FU) for 72 hours. HT29, HCT116, RKO, and LS513 CRC cell lines were exposed to PQIP in combination with SN-38, Oxaliplatin or 5-FU. In all combinations, cells were seeded in 96-well flat bottomed plates and left overnight. PQIP and chemotherapy were both added for 72 hours. The results of the combinations were analyzed by the Chou and Talalay method with Calcusyn (Biosoft, Ferguson, Mo.).
as §3
To characterize the potential functionality that the selected genes may play in the sensitivity or resistance to PQIP, resistant and sensitive CRC cell lines were stably transfected with specific shRNA, treated with increasing concentrations of PQIP and proliferation assays performed to observe, if when manipulated, these genes alter responsiveness (i.e. the S or R phenotype). Two resistant cell lines HCT116 and SW480 were transfected with metallothionein 2A (MT-2A) shRNA and were exposed to increasing concentrations of PQIP. […] Both of these transfected cell lines were assayed for proliferation as described above. […] HT29 tumor cells were transfected with shRNA for ALDH1A1, which is up regulated in the PQIP sensitive cell lines.
Combination treatment of PQIP with Chemotherapy in Colon Cancer Cell Lines: IGF1R is overexpressed in CRC and has been associated with resistance to chemotherapy. Therefore, we investigated the effect of PQIP in combination with standard chemotherapy for CRC. Four CRC cell lines including, two PQIP sensitive and two PQIP resistant, were chosen for combinations. HT29 and LS513 CRC cell lines were classified as sensitive, with IC50's around 0.3 μmol/L. HCT116 and RKO CRC cell lines were classified as resistant, with IC50>5 μmol/L. Concentrations were chosen based on single agent proliferation curves for each compound. Cells were exposed to PQIP and chemotherapy (SN38, oxaliplatin, or 5-Fluorouracil) concurrently for 72 h and combinations were assessed using the SRB assay. […] It thus appears that biomarkers which predict tumor cell sensitivity will also indicate which cells will respond in a synergistic manner to an IGF-1R kinase inhibitor (e.g. PQIP) and chemotherapy (i.e. SN38, oxaliplatin, or 5-Fluorouracil).
Cell Lines and Culture: Twenty-seven human colon cancer cell lines, were obtained from American Type Culture Collection (Manassas, Va.). The GEO cells were a generous gift from Dr. Fortunato Ciardiello (Cattedra di Oncologia Medica, Dipartimento Medico-Chirurgico di Internistica Clinica e Sperimentale “F Magrassi e A Lanzara,” Seconda Università degli Studi di Napoli, Naples). […]

[1] = 72 hours, read-out: IC50, proliferation, OSI-906 (SRB)
[2] = 72 hours, 0.05-5 μM, read-out: IC50, growth inhibition by PQIP (SRB)

- IC50 (SW1463 CRC cell line; [1]): > 5 µM
- IC50 (SW1463 CRC cell line; read-out: S/I/R to OSI-906): > 5 µM
- IC50 (HCT8 CRC cell line; HCT-8, 72 hours, read-out: IC50, proliferation, OSI-906 (SRB)): > 5 µM
- IC50 (HCT8 CRC cell line; HCT-8, read-out: S/I/R to OSI-906): > 5 µM
- IC50 (SW403 CRC cell line; SW-403, 72 hours, read-out: IC50, proliferation, OSI-906 (SRB)): > 5 µM
- IC50 (SW403 CRC cell line; SW-403, read-out: S/I/R to OSI-906): > 5 µM
- IC50 (SW837 CRC cell line; [1]): > 5 µM
- IC50 (SW837 CRC cell line; read-out: S/I/R to OSI-906): > 5 µM
- IC50 (HCT15 CRC cell line; HCT-15, 72 hours, read-out: IC50, proliferation, OSI-906 (SRB)): > 5 µM
- IC50 (HCT15 CRC cell line; HCT-15, read-out: S/I/R to OSI-906): > 5 µM
- IC50 (SW948 CRC cell line; [1]): > 5 µM
- IC50 (SW948 CRC cell line; read-out: S/I/R to OSI-906): > 5 µM
- IC50 (HT29 CRC cell line; Homo sapiens, HT-29, 72 h, HT29, 72 hours, read-out: IC50, proliferation, OSI-906 (SRB)): ≤ 1.5 µM
- IC50 (HT29 CRC cell line; Homo sapiens, HT-29, HT29, read-out: S/I/R to OSI-906): ≤ 1.5 µM
SMILES: C[C@]1(O)C[C@@H](c2nc(-c3ccc4ccc(-c5ccccc5)nc4c3)c3c(N)nccn32)C1 [OSI-906, cis-3-[8-amino-1-(2-phenyl-quinolin-7-yl)-imidazo[1,5-a]pyrazin-3-yl]-1-methyl-cyclobutanol]
- IC50 (LS174T CRC cell line; [1]): > 5 µM
- IC50 (LS174T CRC cell line; read-out: S/I/R to OSI-906): > 5 µM

- IC50 (SW1463 CRC cell line; [2]): > 5 µM
- IC50 (HCT8 CRC cell line; HCT-8, 72 hours, 0.05-5 μM, read-out: IC50, growth inhibition by PQIP (SRB)): > 5 µM
- IC50 (SW403 CRC cell line; SW-403, 72 hours, 0.05-5 μM, read-out: IC50, growth inhibition by PQIP (SRB)): > 5 µM
- IC50 (SW837 CRC cell line; [2]): > 5 µM
- IC50 (HCT15 CRC cell line; HCT-15, 72 hours, 0.05-5 μM, read-out: IC50, growth inhibition by PQIP (SRB)): > 5 µM
- IC50 (SW948 CRC cell line; [2]): > 5 µM
- IC50 (HT29 CRC cell line; HT29, 72 hours, 0.05-5 μM, read-out: IC50, growth inhibition by PQIP (SRB)): ~0.3 µM
- IC50 (HT29 CRC cell line; Homo sapiens, HT-29, 72 h, HT29, 72 hours, 0.05-5 μM, read-out: IC50, growth inhibition by PQIP (SRB)): < 0.5 µM
SMILES: CN1CCN([C@H]2C[C@@H](c3nc(-c4ccc5ccc(-c6ccccc6)nc5c4)c4c(N)nccn43)C2)CC1 [PQIP, cis-3-[3-(4-Methyl-piperazin-1-yl)-cyclobutyl]1-(2-phenyl-quinolin-7-yl)-imidazo[1,5-a]pyrazin-8-ylamine]
- IC50 (LS174T CRC cell line; [2]): > 5 µM
- combination index (CI) values, PQIP and chemotherapy (HT29 CRC cell line; HT29, PQIP with SN38, oxaliplatin or 5-Fluorouracil concurrently 72 h, nearly all CI values, Chou and Talalay): 0.2-1.0
- shift in sensitivity to PQIP after shRNA knockdown (HT29 CRC cell line; HT29 with ALDH1A1 shRNA knockdown): no left shift in sensitivity
